Counter-ions that a name gives are not always drawn.
Legend:
[1] = system: PANC-1; test: Anticancer activity against human PANC-1 cells assessed as cell growth inhibition incubated for 48 hrs by SRB assay; format: functional; conditions: Homo sapiens, PANC-1, 48 h
[2] = Anticancer activity against Lung adenocarcinoma cell line assessed as cell growth inhibition measured after 72 hrs by MTT assay; format: functional, cell-based; conditions: Lung adenocarcinoma cell line, 72 h
[3] = system: HeLa; test: Anticancer activity against human HeLa cells assessed as cell growth inhibition measured after 72 hrs by MTT assay; format: functional, cell-based; conditions: Homo sapiens, HeLa, 72 h; read-out: IC50
[4] = system: A549; test: Anticancer activity against human A549 cells assessed as cell growth inhibition measured after 72 hrs by MTT assay; format: functional, cell-based; conditions: Homo sapiens, A549, 72 h
[5] = system: HCT-116; test: Anticancer activity against human HCT-116 cells assessed as cell growth inhibition; format: functional, cell-based
[6] = system: HEK293; test: Anticancer activity against human HEK293 cells assessed as cell growth inhibition incubated for 3 days by MTT assay; format: functional, cell-based; conditions: HEK293, 72 h
[7] = system: MCF7; test: Anticancer activity against human MCF7 cells assessed as cell growth inhibition incubated for 3 days by MTT assay; format: functional, cell-based; conditions: MCF7, 72 h
[8] = system: HT-29; test: Anticancer activity against human HT-29 cells assessed as cell growth inhibition incubated for 3 days by MTT assay; format: functional, cell-based; conditions: HT-29, 72 h
[9] = system: MCF7; test: Anticancer activity against human MCF7 cells assessed as cell growth inhibition incubated for 48 hrs by MTS assay; format: functional, cell-based; conditions: MCF7, 48 h
[10] = in vitro; conditions: human, CCD-1059Sk cells and MCF7 cells
Description: Selectivity index, ratio of IC50 for cytotoxicity against CCD-1059Sk cells to IC50 for antiproliferative activity against MCF7 cells

[11] = Cytotoxicity activity against human CCD-1059Sk cells assessed as cell growth inhibition incubated for 48 hrs by MTS assay; format: toxicity, cell-based
[12] = Anticancer activity against human AZ-AHR cells assessed as cell growth inhibition incubate for 24 hrs by MTT assay; format: functional, cell-based
[13] = system: B16-F10; test: Anti cancer activity against mouse B16-F10 cells assessed as cell growth inhibition incubated for 40 hrs by Almar Blue stained fluorescence-based assay; format: functional; conditions: B16-F10, 40 h
[14] = system: B16-F10; test: Anti cancer activity against mouse B16-F10 cells assessed as cell growth inhibition incubated for 40 hrs by Almar Blue stained fluorescence-based assay relative to control; format: functional
[15] = system: MDA-MB-231; test: Anticancer activity against human MDA-MB-231 cells assessed as reduction in cell viability measured after 48 hrs at 150 uM by MTT assay relative to control; format: functional

## COc1cc(/C=C/c2ccc(NC(=O)CSc3nnc(-c4ccccc4F)o3)cc2)cc(OC)c1
[1]
  GI50: 0.064 µM

## COc1cccc2c1C(=O)c1c(O)c3c(c(O)c1C2=O)C[C@@](O)(C(=O)CO)C[C@@H]3O[C@H]1C[C@H](N)[C@H](O)[C@H](C)O1 [DOXORUBICIN HYDROCHLORIDE]
[2]
  IC50: 1.18 µM
[3]
  IC50: 0.48 µM
[4]
  IC50: 2.36 µM

## COc1ccc(/C=C/c2cc(OC)c(OC)c(OC)c2)cc1
[5]
  IC50: 1.1 µM

## OC[C@H]1O[C@@H](Oc2cc(O)cc(/C=C/c3ccc(O)cc3)c2)[C@H](O)[C@@H](O)[C@@H]1O [PICEID]
[6]
  IC50: > 100 µM
[7]
  IC50: 38 µM
[8]
  IC50: 18 µM

## COc1cc(/C=C/c2ccc(OC(=O)CSc3nnc(-c4ccncc4)o3)cc2)cc(OC)c1
[1]
  GI50: 0.064 µM

## COc1cc(/C=C/c2ccc(OC(=O)CSc3nnc(-c4ccc(C(F)(F)F)cc4)o3)cc2)cc(OC)c1
[1]
  GI50: 0.064 µM

## O=S(=O)(O)Oc1ccc(/C=C/c2cc(O)cc(OS(=O)(=O)O)c2)cc1
[6]
  IC50: > 100 µM
[7]
  IC50: 26 µM
[8]
  IC50: 56 µM

## COc1cc(/C=C/c2ccc(OC(=O)CSc3nnc(-c4cnccn4)o3)cc2)cc(OC)c1
[1]
  GI50: 0.064 µM

## COc1cc(/C=C/c2ccc(NC(=O)CSc3nnc(-c4ccc(C(F)(F)F)cc4)o3)cc2)cc(OC)c1
[1]
  GI50: 0.064 µM

## COc1cc(/C=C/c2ccc(OC(=O)CSc3nnc(-c4ccccc4F)o3)cc2)cc(OC)c1
[1]
  GI50: 0.064 µM

## Oc1cc(O)cc(/C=C/c2ccc(OCc3ccccc3)cc2)c1
[2]
  IC50: 9.43 µM
[3]
  IC50: 8.25 µM
[4]
  IC50: 26.3 µM

## COc1ccc(/C=N/NC(=O)/C=C/c2ccc(O)c(OC)c2)cc1
[9]
  IC50: 19.1 µM
[10]
  selectivity ratio: 3.9
[11]
  IC50 at 48 h: 158 µM

## COc1cc(/C=C/c2ccc(NC(=O)CSc3nnc(-c4cnccn4)o3)cc2)cc(OC)c1
[1]
  GI50: 0.064 µM

## CC(C)C(=O)Oc1ccc(/C=C/c2cc(OC(=O)C(C)C)cc(OC(=O)C(C)C)c2)cc1
[2]
  IC50: 5.1 µM
[3]
  IC50: 5.1 µM
[4]
  IC50: 5.1 µM

## CC(C)CC(=O)Oc1ccc(/C=C/c2cc(OC(=O)CC(C)C)cc(OC(=O)CC(C)C)c2)cc1
[2]
  IC50: 4.9 µM
[3]
  IC50: 4.9 µM
[4]
  IC50: 4.9 µM

## Oc1cc(O)cc(/C=C\c2ccc(O)c(O)c2)c1
[12]
  IC50: 7.8 µM

## COc1cc(/C=C/c2ccc(OC(=O)CSc3nnc(-c4c(F)cccc4F)o3)cc2)cc(OC)c1
[1]
  GI50: 0.064 µM

## Oc1cc(O)cc(/C=C/c2ccc(O)c(O)c2)c1 [PICEATANNOL]
[12]
  IC50: 4.5 µM
[5]
  IC50: 5 µM

## COc1cc(/C=C/c2ccc(NC(=O)CSc3nnc(-c4cccc(C(F)(F)F)c4)o3)cc2)cc(OC)c1
[1]
  GI50: 0.064 µM

## COc1ccc(/C=C\c2ccc(OC)c(OC)c2)cc1 [7Z-3,4,4'-TRIMETHOXYSTILBENE]
[13]
  IC50: 1 µM

## COc1cc(/C=C/c2ccc(O[C@@H]3O[C@H](CO)[C@@H](O)[C@H](O)[C@H]3O)cc2)cc(O[C@@H]2O[C@H](CO)[C@@H](O)[C@H](O)[C@H]2O)c1
[6]
  IC50: > 100 µM
[7]
  IC50: 78 µM
[8]
  IC50: 45 µM

## COc1cc(/C=C/c2ccc(OC(=O)CSc3nnc(-c4ccc(C)cc4)o3)cc2)cc(OC)c1
[1]
  GI50: 0.064 µM

## COc1cc(/C=C\c2ccc(OC)c(OC)c2)cc(OC)c1 [(Z)-3,4,3',5'-TETRAMETHOXYSTILBENE]
[14]
  inhibition (INH): 80%
[13]
  IC50: 1 µM

## CC(C)(C)C(=O)Oc1ccc(/C=C/c2cc(O)cc(O)c2)cc1
[15]
  Activity: 7.7%

## COc1cc(/C=C/c2ccc(OC(=O)CSc3nnc(-c4ccc(F)cc4)o3)cc2)cc(OC)c1
[1]
  GI50: 0.064 µM

Source: ChEMBL document CHEMBL5233248, “Resveratrol - A comprehensive review of recent advances in anticancer drug design and development” (Eur J Med Chem, 2020)
